From patent US11976072B2, “Diacylglycerol kinase modulating compounds” (priority 2021, dated 2024)
Where two headings read alike, the source gives them in different places.

Legend:
[1] = tested on: Jurkat NFκB-luciferase cells; test: Jurkat NFκB-Luciferase Assay; type: cell-based; details: Homo sapiens
Outline: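 Luminescence from One-Glo Ex, read 7 min post-addition, reports NFκB activation in Jurkat luciferase reporter cells. Cells, diluted to 1 million cells/ml in 10% FBS RPMI, were dispensed onto plates holding compound and washed, pre-bound antibody.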

[2] = molecular target: human DGKα (Homo sapiens, UniProt P23743); test: DGKα Biochemical Activity Assay (ADP-Glo); details: recombinant DGKα 1 nM, 100 μM ATP, 18:1 DAG/POPS/octylglucoside micelles, 1 hour at 25° C.; geometric mean; read-out: HTBS DGKa 1X ATP KM IC50;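 note: luminescent detection of ADP produced as DGKα phosphorylates DAG to phosphatidic acid, IC50 from four-parameter nonlinear curve fit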
human DGKα, sequence (P23743 whole entry): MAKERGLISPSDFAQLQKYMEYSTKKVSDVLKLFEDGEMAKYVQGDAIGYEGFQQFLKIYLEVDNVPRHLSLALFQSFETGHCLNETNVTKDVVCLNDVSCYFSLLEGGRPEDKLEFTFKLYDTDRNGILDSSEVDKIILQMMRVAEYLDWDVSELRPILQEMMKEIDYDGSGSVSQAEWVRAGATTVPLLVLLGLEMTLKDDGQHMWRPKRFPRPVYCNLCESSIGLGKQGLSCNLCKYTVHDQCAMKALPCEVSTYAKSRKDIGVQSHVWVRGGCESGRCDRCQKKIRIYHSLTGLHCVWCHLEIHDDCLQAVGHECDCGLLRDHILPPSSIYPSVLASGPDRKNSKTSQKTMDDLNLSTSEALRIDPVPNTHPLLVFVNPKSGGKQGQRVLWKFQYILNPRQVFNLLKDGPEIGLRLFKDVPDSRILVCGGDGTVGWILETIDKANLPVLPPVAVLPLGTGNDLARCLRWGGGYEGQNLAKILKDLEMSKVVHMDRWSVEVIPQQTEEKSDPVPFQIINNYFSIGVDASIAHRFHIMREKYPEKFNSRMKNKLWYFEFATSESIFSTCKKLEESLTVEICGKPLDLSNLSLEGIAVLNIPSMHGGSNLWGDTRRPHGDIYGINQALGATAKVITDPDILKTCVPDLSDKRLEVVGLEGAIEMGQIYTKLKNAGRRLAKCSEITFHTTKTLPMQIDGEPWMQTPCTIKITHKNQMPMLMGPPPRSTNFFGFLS

[3] = Jurkat NFκB-luciferase cells activated with anti-CD3 antibody (OKT3), 2.5 hrs at 37° C., geometric mean, read-out: DGK NFKb Luciferase EC50
[4] = Jurkat, […], read-out: DGK NFKb Luciferase EC50 (nM)

Structure (SMILES)	EC50 [1, 3]	IC50 [2]	EC50 [1, 4]
Cc1nnc2nc(N3CCCOc4c(C#CC5(C)CC5)cncc43)c3cc(F)ccc3n12 [Example 173, 5-(7-fluoro-1-methyl-[1,2,4]triazolo[4,3-a]quinazolin-5-yl)-9-[2-(1-methylcyclopropyl)ethynyl]-3,4-dihydro-2H-pyrido[4,3-b][1,4]oxazepine]	2.03 nM	17.2 nM	
CC(C)(O)C#Cc1cccc2c1CCCN2c1nc2nncn2c2ccccc12 [Example 174, 2-methyl-4-[1-([1,2,4]triazolo[4,3-a]quinazolin-5-yl)-3,4-dihydro-2H-quinolin-5-yl]but-3-yn-2-ol]		26.7 nM	12 nM
FC(F)(F)C1(C#Cc2cccc3c2CCCN3c2nc3nncn3c3ccccc23)CC1 [Example 175, 5-[5-[2-[1-(trifluoromethyl)cyclopropyl]ethynyl]-3,4-dihydro-2H-quinolin-1-yl]-[1,2,4]triazolo[4,3-a]quinazoline]	1.74 nM	110 nM	
Cc1nnc2nc(N3CCCCc4c(C#CC(C)(C)NC(=O)C5(C(F)(F)F)CC5)cccc43)c3c(F)c(F)ccc3n12 [Example 176]	6.67 nM	12.4 nM	
Cc1nnc2nc(N3CCCCc4c(C#CC5(NC(=O)C6(C(F)(F)F)CC6)CC5)cccc43)c3c(F)cccc3n12 [Example 177, N-(1-((1-(6-Fluoro-1-methyl-[1,2,4]triazolo[4,3-a]quinazolin-5-yl)-2,3,4,5-tetrahydro-1H-benzo[b]azepin-6-yl)ethynyl)cyclopropyl)-1-(trifluoromethyl)cyclopropane-1-carboxamide]	23.4 nM	6.74 nM	
Cc1nnc2nc(N3CCOCc4c(C#CC(C)(C)NS(=O)(=O)C5(C(F)F)CC5)cccc43)c3c(F)cccc3n12 [Example 178, 1-(Difluoromethyl)-N-[3-[1-(6-fluoro-1-methyl-[1,2,4]triazolo[4,3-a]quinazolin-5-yl)-3,5-dihydro-2H-4,1-benzoxazepin-6-yl]-1,1-dimethyl-prop-2-ynyl]cyclopropanesulfonamide]	10.2 nM	44.9 nM	
Cc1nc(C#Cc2cccc3c2COCCN3c2nc3nnc(C)n3c3cccc(F)c23)co1 [Example 179, 1-(6-Fluoro-1-methyl-[1,2,4]triazolo[4,3-a]quinazolin-5-yl)-6-[2-(2-methyloxazol-4-yl)ethynyl]-3,5-dihydro-2H-4,1-benzoxazepine]	9.13 nM	9.59 nM	
Cc1nnc2nc(N3CCOCc4c(C#CC(C)(C)NC(=O)C(C)(C)C(C)(F)F)cccc43)c3c(F)cccc3n12 [Example 180, 3,3-Difluoro-N-[3-[1-(6-fluoro-1-methyl-[1,2,4]triazolo[4,3-a]quinazolin-5-yl)-3,5-dihydro-2H-4,1-benzoxazepin-6-yl]-1,1-dimethyl-prop-2-ynyl]-2,2-dimethyl-butanamide]	13.5 nM	5.12 nM	
Cc1nnc2nc(N3CCOCc4c(C#CC(C)(C)NC(=O)C5(C(C)(F)F)CC5)cccc43)c3c(F)cccc3n12 [Example 181, 1-(1,1-Difluoroethyl)-N-[3-[1-(6-fluoro-1-methyl-[1,2,4]triazolo[4,3-a]quinazolin-5-yl)-3,5-dihydro-2H-4,1-benzoxazepin-6-yl]-1,1-dimethyl-prop-2-ynyl]cyclopropanecarboxamide]	12.4 nM	4.06 nM	
Cc1nnc2nc(N3CCOCc4c(C#CC(C)(C)NC(=O)C5(C(F)(F)F)CC5)cccc43)c3c(F)c(F)ccc3n12 [Example 182, N-[3-[1-(6,7-Difluoro-1-methyl-[1,2,4]triazolo[4,3-a]quinazolin-5-yl)-3,5-dihydro-2H-4,1-benzoxazepin-6-yl]-1,1-dimethyl-prop-2-ynyl]-1-(trifluoromethyl)cyclopropanecarboxamide]	4.27 nM	2.41 nM	
Cc1nnc2nc(N3CCCCc4c(C#CC(C)(C)NC(=O)C5(C(F)(F)F)CC5)cccc43)c3c(F)cccc3n12 [Example 183, N-(4-(1-(6-fluoro-1-methyl-[1,2,4]triazolo[4,3-a]quinazolin-5-yl)-2,3,4,5-tetrahydro-1H-benzo[b]azepin-6-yl)-2-methylbut-3-yn-2-yl)-1-(trifluoromethyl)cyclopropane-1-carboxamide]	11.8 nM	28.4 nM	
Cc1nnc2nc(N3CCOCc4c(C#CC(C)(C)C(C)(F)F)cccc43)c3c(F)c(F)ccc3n12 [Example 184, 6-(4,4-Difluoro-3,3-dimethyl-pent-1-ynyl)-1-(6,7-difluoro-1-methyl-[1,2,4]triazolo[4,3-a]quinazolin-5-yl)-3,5-dihydro-2H-4,1-benzoxazepine]	0.787 nM	7.51 nM	
Cc1nnc2nc(N3CCCCc4c(C#CC5(C)COC5)cccc43)c3c(F)c(F)ccc3n12 [Example 185, 6,7-Difluoro-1-methyl-5-[6-[2-(3-methyloxetan-3-yl)ethynyl]-2,3,4,5-tetrahydro-1-benzazepin-1-yl]-[1,2,4]triazolo[4,3-a]quinazoline]	1.09 nM	4.58 nM	
Cc1nnc2nc(N3CCCCc4c(C#CC(C)(C)C#N)cccc43)c3c(F)c(F)ccc3n12 [Example 186, 4-[1-(6,7-Difluoro-1-methyl-[1,2,4]triazolo[4,3-a]quinazolin-5-yl)-2,3,4,5-tetrahydro-1-benzazepin-6-yl]-2,2-dimethyl-but-3-ynenitrile]	2.84 nM	6.51 nM	
Cc1nnc2nc(N3CCOCc4c(C#CC(C)(C)C(C)(F)F)cccc43)c3c(F)cccc3n12 [Example 187, 6-(4,4-Difluoro-3,3-dimethyl-pent-1-ynyl)-1-(6-fluoro-1-methyl-[1,2,4]triazolo[4,3-a]quinazolin-5-yl)-3,5-dihydro-2H-4,1-benzoxazepine]	1.45 nM	12.3 nM	
Cc1nnc2nc(N3CCCCc4c(C#CC(C)(C)C#N)cccc43)c3c(F)cccc3n12 [Example 188, 4-[1-(6-Fluoro-1-methyl-[1,2,4]triazolo[4,3-a]quinazolin-5-yl)-2,3,4,5-tetrahydro-1-benzazepin-6-yl]-2,2-dimethyl-but-3-ynenitrile]	2.12 nM	9.86 nM	
Cc1nnc2nc(N3CCOCc4c(C#CC(C)(C)C#N)cccc43)c3c(F)cccc3n12 [Example 189, 4-[1-(6-Fluoro-1-methyl-[1,2,4]triazolo[4,3-a]quinazolin-5-yl)-3,5-dihydro-2H-4,1-benzoxazepin-6-yl]-2,2-dimethyl-but-3-ynenitrile]	3.44 nM	1.84 nM	
Cc1nnc2nc(N3CCOCc4c(C#CC(C)(C)C(F)F)cccc43)c3c(F)cccc3n12 [Example 190, 6-(4,4-Difluoro-3,3-dimethyl-but-1-ynyl)-1-(6-fluoro-1-methyl-[1,2,4]triazolo[4,3-a]quinazolin-5-yl)-3,5-dihydro-2H-4,1-benzoxazepine]	1.46 nM	6.91 nM	
Cc1nnc2nc(N3CCOCc4c(C#CC5(C(F)F)CC5)cccc43)c3c(F)cccc3n12 [Example 191, 6-[2-[1-(Difluoromethyl)cyclopropyl]ethynyl]-1-(6-fluoro-1-methyl-[1,2,4]triazolo[4,3-a]quinazolin-5-yl)-3,5-dihydro-2H-4,1-benzoxazepine]	1.42 nM	3.66 nM	
Cc1nnc2nc(N3CCCCc4c(C#CC5(C(F)(F)F)CC5)cccc43)c3c(F)cccc3n12 [Example 192]	0.892 nM	54.9 nM	
Cc1nnc2nc(N3CCCCc4c(C#CC5(C)COC5)cccc43)c3c(F)cccc3n12 [Example 193]	0.871 nM	2.85 nM	
Cc1nnc2nc(N3CCOCc4c(C#CC5(C)COC5)cccc43)c3c(F)cccc3n12 [Example 194, 1-(6-Fluoro-1-methyl-[1,2,4]triazolo[4,3-a]quinazolin-5-yl)-6-[2-(3-methyloxetan-3-yl)ethynyl]-3,5-dihydro-2H-4,1-benzoxazepine]	1.68 nM	0.773 nM	
CCC1(C#Cc2cccc3c2COCCN3c2nc3nnc(C)n3c3cccc(F)c23)CC1 [Example 195, 6-[2-(1-Ethylcyclopropyl)ethynyl]-1-(6-fluoro-1-methyl-[1,2,4]triazolo[4,3-a]quinazolin-5-yl)-3,5-dihydro-2H-4,1-benzoxazepine]	0.382 nM	13.3 nM	
Cc1nnc2nc(N3CCOCc4c(C#CC5(C)CC5)cccc43)c3c(F)c(F)ccc3n12 [Example 196, 1-(6,7-Difluoro-1-methyl-[1,2,4]triazolo[4,3-a]quinazolin-5-yl)-6-((1-methylcyclopropyl)ethynyl)-1,2,3,5-tetrahydrobenzo[e][1,4]oxazepine]	0.545 nM	2.49 nM	
Cc1nnc2nc(N3CCCc4c(C#CC5(O)CCC6(CC5)CC6)cccc43)c3c(F)cccc3n12 [Example 197]	1.38 nM	11 nM	
Cc1nnc2nc(N3CCCc4c(C#CC5(O)CC6CC(C6)C5)cccc43)c3c(F)cccc3n12 (centres unmarked) [Example 198, 3-((1-(6-fluoro-1-methyl-[1,2,4]triazolo[4,3-a]quinazolin-5-yl)-1,2,3,4-tetrahydroquinolin-5-yl)ethynyl)bicyclo[3.1.1]heptan-3-ol]		10.8 nM	0.508 nM
Cc1nnc2nc(N3CCCc4c(C#CC5(O)C[C@H]6C[C@H]6C5)cccc43)c3c(F)cccc3n12 (stereo partly drawn) [Example 199, (1R,5S)-3-((1-(6-fluoro-1-methyl-[1,2,4]triazolo[4,3-a]quinazolin-5-yl)-1,2,3,4-tetrahydroquinolin-5-yl)ethynyl)bicyclo[3.1.0]hexan-3-ol]		3.83 nM	1.62 nM
Cc1nnc2nc(N3CCOCc4c(C#CC5(C(C)(F)F)CC5)cccc43)c3c(F)c(F)ccc3n12 [Example 200, 6-[2-[1-(1,1-Difluoroethyl)cyclopropyl]ethynyl]-1-(6,7-difluoro-1-methyl-[1,2,4]triazolo[4,3-a]quinazolin-5-yl)-3,5-dihydro-2H-4,1-benzoxazepine]	0.858 nM	5.18 nM	
